The target in data set [1] is L-type calcium channel (Cav1.2, alpha-1C), CA+/VERSI/R (Rattus norvegicus, UniProt P22002). Nature of the data set: Inhibitor of CA+/VERSI/R in the Eurofins SafetyScreen44 (BI) by Radioactive Assay (Old_Cerep_11). Details: scale not given: the % may be the effect or the level left; call rule not given here. To be noted: compound concentration 10 uM, read-out: % Ctrl.
In data set [2] the target is C-X-C chemokine receptor type 2 (Homo sapiens) (UniProt P25025). Nature of the data set: CXCR2 (IL-8B) Eurofins-Cerep binding assay. The conditions noted are these: Compound concentration 10.0 uM.
Chain of C-X-C chemokine receptor type 2 (Homo sapiens) (P25025 whole entry): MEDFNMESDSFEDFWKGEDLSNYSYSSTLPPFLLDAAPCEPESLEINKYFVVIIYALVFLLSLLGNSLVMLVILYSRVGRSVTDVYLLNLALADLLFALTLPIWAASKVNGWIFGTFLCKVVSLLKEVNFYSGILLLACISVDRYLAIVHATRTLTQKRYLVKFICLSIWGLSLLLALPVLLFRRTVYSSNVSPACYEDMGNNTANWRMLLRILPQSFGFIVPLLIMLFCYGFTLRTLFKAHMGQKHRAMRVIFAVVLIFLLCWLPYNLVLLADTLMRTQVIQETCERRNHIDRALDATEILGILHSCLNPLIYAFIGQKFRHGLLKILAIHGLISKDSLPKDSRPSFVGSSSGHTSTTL
In data set [3] the target is Adenosine receptor A3 (Homo sapiens) (UniProt P0DMS8). Nature of the data set: A3 Eurofins-Cerep binding assay. Details: ligand concentration 0.15 nM.
Chain of Adenosine receptor A3 (Homo sapiens) (P0DMS8 whole entry): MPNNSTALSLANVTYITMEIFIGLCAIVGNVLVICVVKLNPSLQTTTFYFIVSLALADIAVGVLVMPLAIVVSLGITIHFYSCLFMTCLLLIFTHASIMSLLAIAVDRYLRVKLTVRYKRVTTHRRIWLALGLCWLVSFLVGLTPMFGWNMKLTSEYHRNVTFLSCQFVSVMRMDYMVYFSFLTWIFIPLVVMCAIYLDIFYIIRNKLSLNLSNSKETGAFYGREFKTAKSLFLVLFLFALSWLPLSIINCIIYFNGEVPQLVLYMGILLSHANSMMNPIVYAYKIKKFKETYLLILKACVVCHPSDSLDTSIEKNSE
Data set [4] concerns the target D(4) dopamine receptor (Homo sapiens) (UniProt P21917). Nature of the data set: D4.4 Eurofins-Cerep binding assay. To be noted: Compound concentration 10.0 uM.
The target in data set [5] is Neuromedin-K receptor (Homo sapiens) (UniProt P29371). Nature of the data set: Agonist activity in the Eurofins SafetyScreen44 (BI) against NK3/H by Radioligand Binding (Old_Cerep_26). The conditions noted are these: Compound concentration 10.0 uM.
Data set [6] has as its target Prostacyclin receptor (Homo sapiens) (UniProt P43119). Nature of the data set: Activity against PGI2/H in the Eurofins SafetyScreen44 (BI) by Radioactive Assay (Old_Cerep_34). To be noted: Compound concentration 10.0 uM.
The target of data set [7] is 5-hydroxytryptamine receptor 7 (Homo sapiens) (UniProt P34969). Nature of the data set: 5-HT7 Eurofins-Cerep binding assay. The conditions noted are these: Compound concentration 10.0 uM. Details: ligand concentration 4 nM.
For data set [8], the target named is C-C chemokine receptor type 1 (Homo sapiens) (UniProt P32246). Nature of the data set: Activity against CCR1/H in the Eurofins SafetyScreen44 (BI) (Old_Cerep_14). To be noted: Compound concentration 10.0 uM.
Chain of C-C chemokine receptor type 1 (Homo sapiens) (P32246 whole entry): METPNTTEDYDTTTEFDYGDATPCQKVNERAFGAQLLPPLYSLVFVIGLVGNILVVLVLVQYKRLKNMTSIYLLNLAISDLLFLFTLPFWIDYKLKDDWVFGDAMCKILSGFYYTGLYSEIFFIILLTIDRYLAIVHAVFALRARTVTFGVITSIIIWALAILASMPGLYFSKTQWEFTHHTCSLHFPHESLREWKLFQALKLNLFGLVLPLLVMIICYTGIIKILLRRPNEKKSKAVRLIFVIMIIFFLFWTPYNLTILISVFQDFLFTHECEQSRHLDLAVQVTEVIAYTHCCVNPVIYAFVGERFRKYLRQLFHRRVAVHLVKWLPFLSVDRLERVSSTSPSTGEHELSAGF
Data set [9] deals with Small conductance calcium-activated potassium channel protein 1 (Rattus norvegicus) (UniProt P70606). Nature of the data set: Inhibitor of K+/CA+/R in the Eurofins SafetyScreen44 (BI) by Radioactive Assay (Old_Cerep_23). To be noted: Compound concentration 10.0 uM.
Data set [10] addresses Type-1 angiotensin II receptor (Homo sapiens) (UniProt P30556). Nature of the data set: AT1 Eurofins-Cerep binding assay.
For data set [11], the target named is Neuropeptide Y receptor type 1 (Homo sapiens) (UniProt P25929). Nature of the data set: Y1 Eurofins-Cerep binding assay. Details: ligand concentration 0.025 nM. To be noted: Compound concentration 10.0 uM.
Data set [12] has as its target Galanin receptor type 2 (Homo sapiens) (UniProt O43603). Nature of the data set: Inhibitor of GAL2/H in the Eurofins SafetyScreen44 (BI) by Radioactive Assay (Old_Cerep_22). To be noted: Compound concentration 10.0 uM.
Data set [13] deals with Substance-K receptor (Homo sapiens) (UniProt P21452). Nature of the data set: Activity against NK2/H in the Eurofins SafetyScreen44 (BI) by Radioactive Assay (Old_Cerep_25). To be noted: Compound concentration 10.0 uM.
Data set [14] concerns the target 5-hydroxytryptamine receptor 6 (Homo sapiens) (UniProt P50406). Nature of the data set: Activity against 5HT6/H in the Eurofins SafetyScreen44 (BI) by Others (Old_Cerep_3). The conditions noted are these: Compound concentration 10.0 uM.
Data set [15] addresses Adrenergic receptor alpha-1 (Rattus norvegicus) (UniProt P15823+P23944+P43140). Nature of the data set: Inhibitor of ALPHA1/NS/R in the Eurofins SafetyScreen44 (BI) by Radioactive Assay (Old_Cerep_5). Format: protein assay.
Data set [16] has as its target P2X purinoceptor (Oryctolagus cuniculus) (UniProt G1U3D6). Nature of the data set: Activity against P2X/R in the Eurofins SafetyScreen44 (BI) by Others (Old_Cerep_29). To be noted: Rattus norvegicus; Compound concentration 10.0 uM.
Data set [17] addresses Neurotensin receptor type 1 (Homo sapiens) (UniProt P30989). Nature of the data set: Activity against NT1/H in the Eurofins SafetyScreen44 (BI) by Radioactive Assay (Old_Cerep_27). The conditions noted are these: Compound concentration 10.0 uM.
In data set [18] the target is D(1B) dopamine receptor (Homo sapiens) (UniProt P21918). Nature of the data set: Activity against D5/H in the Eurofins SafetyScreen44 (BI) by Radioactive Assay (Old_Cerep_17). To be noted: Compound concentration 10.0 uM.
The species entered for another data set is Rattus norvegicus. Nature of the data set: BZD (central) Eurofins-Cerep binding assay. To be noted: Compound concentration 10.0 uM.
The target of data set [19] is 5-hydroxytryptamine receptor 1B (Rattus norvegicus) (UniProt P28564). Nature of the data set: Inhibitor of 5HT1B/R in the Eurofins SafetyScreen44 (BI) by Radioactive Assay (Old_Cerep_1). To be noted: Compound concentration 10.0 uM.
In data set [20] the target is Endothelin receptor type B (Homo sapiens) (UniProt P24530). Nature of the data set: Activity against ETB/H in the Eurofins SafetyScreen44 (BI) by Radioactive Assay (Old_Cerep_20). To be noted: Compound concentration 10.0 uM.
Data set [21] deals with Prostaglandin E2 receptor EP2 subtype (Homo sapiens) (UniProt P43116). Nature of the data set: Agonist activity in the Eurofins SafetyScreen44 (BI) against EP2(H) by Scintillation counting (Old_Cerep_18). To be noted: Compound concentration 10.0 uM.
In data set [22] the target is Melatonin receptor type 1A (Homo sapiens) (UniProt P48039). Nature of the data set: MT1 (ML1A) Eurofins-Cerep binding assay. The conditions noted are these: Compound concentration 10.0 uM. Also noted: ligand concentration 0.01 nM.
The target of data set [23] is Adenosine receptor A1 (Homo sapiens) (UniProt P30542). Nature of the data set: A1 Eurofins-Cerep binding assay. Also noted: ligand concentration 1 nM.
Chain of Adenosine receptor A1 (Homo sapiens) (P30542 whole entry): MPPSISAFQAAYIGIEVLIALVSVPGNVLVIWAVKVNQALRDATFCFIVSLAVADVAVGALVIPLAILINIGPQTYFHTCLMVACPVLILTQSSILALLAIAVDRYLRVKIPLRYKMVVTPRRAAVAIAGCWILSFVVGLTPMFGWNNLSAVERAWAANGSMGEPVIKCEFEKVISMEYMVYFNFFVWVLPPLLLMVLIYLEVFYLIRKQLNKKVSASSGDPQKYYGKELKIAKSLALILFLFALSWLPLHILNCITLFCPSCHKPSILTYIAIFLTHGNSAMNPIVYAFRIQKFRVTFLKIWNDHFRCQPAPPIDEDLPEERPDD
Data set [24] has as its target Somatostatin receptor type 5 (Mus musculus) (UniProt O08858). Nature of the data set: Activity against SOMATOS/M in the Eurofins SafetyScreen44 (BI) by Radioactive Assay (Old_Cerep_36). The conditions noted are these: Compound concentration 10.0 uM.
Data set [25] addresses Prostaglandin E2 receptor EP4 subtype (Homo sapiens) (UniProt P35408). Nature of the data set: Agonist activity in the Eurofins SafetyScreen44 (BI) against EP4/H AG by Radioactive Assay (Old_Cerep_19). To be noted: Compound concentration 10.0 uM.
For data set [26], the target named is D(3) dopamine receptor (Homo sapiens) (UniProt P35462). Nature of the data set: D3 Eurofins-Cerep binding assay. The conditions noted are these: Compound concentration 10.0 uM.
For data set [27], the target named is Peroxisome proliferator-activated receptor gamma (Homo sapiens) (UniProt P37231). Nature of the data set: Agonist activity in the Eurofins SafetyScreen44 (BI) against PPARG/H AG by Radioactive Assay (Old_Cerep_35). To be noted: Compound concentration 10.0 uM.
In data set [28] the target is L-type calcium channel (Cav1.2, alpha-1C), dihydropyridine site (Rattus norvegicus, UniProt P22002). Nature of the data set: Inhibitor of CA+/DHPSI/R in the Eurofins Cerep SafetyScreen44 (BI) by Radioactive Assay (Cerep_161). In kind it is protein assay. Also noted: scale not given: the % may be the effect or the level left. The conditions noted are these: rat brain, probe [3H](+)PN200-110, compound concentration 10 uM, read-out: % Ctrl.

In data set [29] the target is Tyrosine-protein kinase Lck (Homo sapiens) (UniProt P06239). Nature of the data set: Inhibitor of LCK_CE in the Eurofins Cerep SafetyScreen44 (BI) by lanthanide chelation excitation (Cerep_2906). To be noted: Compound concentration 10.0 uM.
Data set [30] concerns the target Angiotensin-converting enzyme (Homo sapiens) (UniProt P12821). Nature of the data set: Activity against ACE(HU_AMTCH400) in the Eurofins Cerep SafetyScreen44 (BI) by Photometry (Cerep_3441). To be noted: Compound concentration 10.0 uM.
In data set [31] the target is Alpha-2A adrenergic receptor (Homo sapiens) (UniProt P08913). Nature of the data set: Inhibitor of ALPHA2A/HU in the Eurofins Cerep SafetyScreen44 (BI) by Radioactive Assay (Cerep_13). To be noted: Compound concentration 10.0 uM.
The target of data set [32] is Alpha-1A adrenergic receptor (Homo sapiens) (UniProt P35348). Nature of the data set: Agonist activity in the Eurofins Cerep SafetyScreen44 (BI) against ALPHA1AH_ANTAG by Scintillation counting (Cerep_2338). To be noted: Compound concentration 10.0 uM.
Data set [33] has as its target Sodium-dependent serotonin transporter (Homo sapiens) (UniProt P31645). Nature of the data set: 5-HT transporter Eurofins-Cerep binding assay. Also noted: ligand concentration 2 nM. The conditions noted are these: Compound concentration 10.0 uM.
Data set [34] concerns the target 5-hydroxytryptamine receptor 1B (Homo sapiens) (UniProt P28222). Nature of the data set: 5-HT1B Eurofins-Cerep binding assay. Details: ligand concentration 1 nM. The conditions noted are these: Compound concentration 10.0 uM.

Chain of Type-1 angiotensin II receptor (Homo sapiens) (P30556 whole entry): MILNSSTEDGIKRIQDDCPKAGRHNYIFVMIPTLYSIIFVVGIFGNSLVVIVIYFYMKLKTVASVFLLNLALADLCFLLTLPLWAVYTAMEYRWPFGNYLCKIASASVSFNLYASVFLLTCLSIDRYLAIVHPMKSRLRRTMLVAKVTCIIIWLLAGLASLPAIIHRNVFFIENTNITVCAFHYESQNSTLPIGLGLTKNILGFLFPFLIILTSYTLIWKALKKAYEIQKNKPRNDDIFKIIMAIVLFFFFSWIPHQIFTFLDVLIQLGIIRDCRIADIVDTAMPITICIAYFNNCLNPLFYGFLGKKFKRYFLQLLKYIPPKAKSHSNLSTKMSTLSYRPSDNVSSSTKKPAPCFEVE
Chain of D(4) dopamine receptor (Homo sapiens) (P21917 whole entry): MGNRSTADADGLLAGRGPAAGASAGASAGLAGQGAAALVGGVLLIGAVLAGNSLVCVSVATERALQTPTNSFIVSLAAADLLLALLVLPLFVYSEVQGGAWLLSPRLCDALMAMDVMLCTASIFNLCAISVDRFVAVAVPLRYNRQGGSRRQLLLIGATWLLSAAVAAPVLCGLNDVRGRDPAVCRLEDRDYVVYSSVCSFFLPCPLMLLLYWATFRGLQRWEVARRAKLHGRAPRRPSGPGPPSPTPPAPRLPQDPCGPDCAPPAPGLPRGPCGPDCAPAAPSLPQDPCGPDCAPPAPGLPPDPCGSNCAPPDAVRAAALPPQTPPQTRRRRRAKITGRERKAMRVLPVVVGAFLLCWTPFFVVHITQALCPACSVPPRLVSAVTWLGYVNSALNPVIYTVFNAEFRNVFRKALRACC
Chain of 5-hydroxytryptamine receptor 6 (Homo sapiens) (P50406 whole entry): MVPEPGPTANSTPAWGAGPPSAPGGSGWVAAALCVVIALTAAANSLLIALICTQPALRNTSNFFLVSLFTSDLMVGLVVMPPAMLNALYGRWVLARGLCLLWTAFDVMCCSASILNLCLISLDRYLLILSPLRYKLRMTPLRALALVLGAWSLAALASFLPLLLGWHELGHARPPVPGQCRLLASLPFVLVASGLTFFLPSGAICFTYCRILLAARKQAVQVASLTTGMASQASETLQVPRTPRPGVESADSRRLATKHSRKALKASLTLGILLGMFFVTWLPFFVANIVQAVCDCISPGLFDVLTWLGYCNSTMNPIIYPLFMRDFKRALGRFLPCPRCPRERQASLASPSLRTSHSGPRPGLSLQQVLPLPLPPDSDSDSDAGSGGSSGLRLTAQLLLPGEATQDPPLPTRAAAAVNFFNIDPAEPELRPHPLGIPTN
Chain of Angiotensin-converting enzyme (Homo sapiens) (P12821 whole entry): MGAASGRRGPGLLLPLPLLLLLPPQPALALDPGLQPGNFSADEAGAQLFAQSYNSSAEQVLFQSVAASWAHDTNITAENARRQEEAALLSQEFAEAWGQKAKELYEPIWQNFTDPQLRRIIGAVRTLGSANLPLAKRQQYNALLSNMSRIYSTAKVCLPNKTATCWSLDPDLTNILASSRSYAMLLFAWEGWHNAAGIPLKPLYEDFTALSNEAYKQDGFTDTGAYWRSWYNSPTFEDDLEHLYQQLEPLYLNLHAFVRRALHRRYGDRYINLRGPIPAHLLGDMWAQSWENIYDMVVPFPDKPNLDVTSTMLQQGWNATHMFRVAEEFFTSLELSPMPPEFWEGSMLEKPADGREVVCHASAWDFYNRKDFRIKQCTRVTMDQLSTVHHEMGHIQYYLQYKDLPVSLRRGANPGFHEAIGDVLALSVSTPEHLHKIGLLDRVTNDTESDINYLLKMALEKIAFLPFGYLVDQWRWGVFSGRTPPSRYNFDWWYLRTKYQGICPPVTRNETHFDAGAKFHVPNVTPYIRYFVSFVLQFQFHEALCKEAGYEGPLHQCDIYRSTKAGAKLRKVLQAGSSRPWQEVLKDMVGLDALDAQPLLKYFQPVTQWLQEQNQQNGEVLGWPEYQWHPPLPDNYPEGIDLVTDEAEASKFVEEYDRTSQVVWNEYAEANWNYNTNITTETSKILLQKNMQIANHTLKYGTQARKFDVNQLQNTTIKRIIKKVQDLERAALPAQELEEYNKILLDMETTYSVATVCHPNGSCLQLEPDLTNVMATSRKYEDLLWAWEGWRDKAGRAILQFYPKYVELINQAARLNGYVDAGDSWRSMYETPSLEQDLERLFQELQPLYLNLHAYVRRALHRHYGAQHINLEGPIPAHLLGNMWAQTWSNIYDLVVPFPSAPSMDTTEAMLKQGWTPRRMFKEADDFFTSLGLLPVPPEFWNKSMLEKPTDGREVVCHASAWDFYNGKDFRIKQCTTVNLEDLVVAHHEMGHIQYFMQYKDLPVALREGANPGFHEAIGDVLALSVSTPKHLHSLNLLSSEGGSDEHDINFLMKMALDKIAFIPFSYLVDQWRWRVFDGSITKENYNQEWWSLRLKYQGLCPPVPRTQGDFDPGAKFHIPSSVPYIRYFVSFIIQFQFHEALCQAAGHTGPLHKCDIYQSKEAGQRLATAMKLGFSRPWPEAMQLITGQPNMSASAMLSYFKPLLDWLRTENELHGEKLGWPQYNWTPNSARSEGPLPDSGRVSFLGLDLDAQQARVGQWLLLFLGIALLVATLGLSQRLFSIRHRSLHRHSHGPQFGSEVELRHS
Chain of 5-hydroxytryptamine receptor 1B (Homo sapiens) (P28222 whole entry): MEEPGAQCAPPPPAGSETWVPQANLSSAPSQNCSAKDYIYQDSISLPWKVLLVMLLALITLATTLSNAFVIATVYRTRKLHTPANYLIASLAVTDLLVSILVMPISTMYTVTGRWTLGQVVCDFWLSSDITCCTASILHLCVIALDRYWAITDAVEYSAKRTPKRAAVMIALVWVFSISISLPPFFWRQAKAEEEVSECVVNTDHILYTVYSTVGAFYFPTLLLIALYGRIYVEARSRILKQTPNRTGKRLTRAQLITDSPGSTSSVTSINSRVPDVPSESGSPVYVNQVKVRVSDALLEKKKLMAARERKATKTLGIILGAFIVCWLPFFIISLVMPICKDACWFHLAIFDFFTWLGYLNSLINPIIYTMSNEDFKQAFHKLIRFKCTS
Chain of P2X purinoceptor (Oryctolagus cuniculus) (G1U3D6 as listed by the source): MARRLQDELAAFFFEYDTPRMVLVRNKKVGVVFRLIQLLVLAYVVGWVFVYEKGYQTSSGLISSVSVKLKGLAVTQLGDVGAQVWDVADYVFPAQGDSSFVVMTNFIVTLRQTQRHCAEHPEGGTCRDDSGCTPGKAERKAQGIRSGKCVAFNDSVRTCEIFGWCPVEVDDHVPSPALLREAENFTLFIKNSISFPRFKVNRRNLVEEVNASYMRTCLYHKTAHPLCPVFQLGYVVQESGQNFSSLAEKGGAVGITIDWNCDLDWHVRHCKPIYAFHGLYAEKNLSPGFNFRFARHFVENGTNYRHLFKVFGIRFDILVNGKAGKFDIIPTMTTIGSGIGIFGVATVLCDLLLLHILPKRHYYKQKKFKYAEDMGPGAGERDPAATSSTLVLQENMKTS

`CC(C)(O)CNC(=O)N1C(=O)N(c2cccc(C(F)(F)F)c2)C2=C(C(=O)CC2)[C@H]1c1ccc(C#N)cc1`: the activity at 10 µM in data set [1] is 102% (not active). Besides, the residual activity was 105% in [2]; 92% in [3] (Compound concentration 10.0 uM); 80% in data set [3] (Compound concentration 30.0 uM); 98% in data set [4]; 102% in data set [5]; 123% in data set [6]. The residual activity was 102% in data set [7]; 89% in [8]; 97% in data set [9]; 116% in [10] (Compound concentration 10.0 uM); 92% in data set [10] (Compound concentration 30.0 uM); 107% in [11]. Moreover, the residual activity is 114% in data set [12]; 103% in data set [13]; 93% in [14]; 97% in [15] (Compound concentration 10.0 uM); 103% in data set [15] (Compound concentration 30.0 uM); 103% in data set [16]. In addition, the residual activity was 114% in data set [17]; 103% in [18]; 111% in the data set listed under Rattus norvegicus; 136% in [19]; 92% in [20]; 93% in data set [21]. Further, the residual activity in data set [22] is 105%; in data set [23] (Compound concentration 10.0 uM) it was 107%; in [23] (Compound concentration 30.0 uM), 102%; in data set [24], 114%; in [25], 77%; in [26], 96%. The residual activity in data set [27] is 111%.
Turning to `CC(C)(O)CNC(=O)N1C(=O)N(c2cccc(C(F)(F)F)c2)C2=C(C(=O)CC2)[C@@H]1c1ccc(C#N)cc1`, in data set [28], the activity at 10 µM is recorded as 104% (not active). Moreover, the residual activity in data set [29] was 92%; in [30], 98%; in data set [31], 98%; in data set [32] it was 102%; in data set [33], 105%; in [34], 86%.

These data come from ChEMBL document CHEMBL5463722, “Data for DCP probe BI-5524” (2023).
